ChEMBL document CHEMBL1201862, “PubChem BioAssay data set” (2004)
The source made the active and inactive calls. Cut-off read from the data, not from the text of the source, for most assays here: actives have a measured EC50 and inactives only a lower limit.

How the values were obtained:
[1] = target: T1, Sentrin-specific protease 6 (Homo sapiens, UniProt Q9GZR1); type: functional;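 note: Luminescence-based dose-response confirmatory assay of SENP6 inhibition, following up an ultra-high-throughput screen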
T1 sequence (Q9GZR1 whole entry): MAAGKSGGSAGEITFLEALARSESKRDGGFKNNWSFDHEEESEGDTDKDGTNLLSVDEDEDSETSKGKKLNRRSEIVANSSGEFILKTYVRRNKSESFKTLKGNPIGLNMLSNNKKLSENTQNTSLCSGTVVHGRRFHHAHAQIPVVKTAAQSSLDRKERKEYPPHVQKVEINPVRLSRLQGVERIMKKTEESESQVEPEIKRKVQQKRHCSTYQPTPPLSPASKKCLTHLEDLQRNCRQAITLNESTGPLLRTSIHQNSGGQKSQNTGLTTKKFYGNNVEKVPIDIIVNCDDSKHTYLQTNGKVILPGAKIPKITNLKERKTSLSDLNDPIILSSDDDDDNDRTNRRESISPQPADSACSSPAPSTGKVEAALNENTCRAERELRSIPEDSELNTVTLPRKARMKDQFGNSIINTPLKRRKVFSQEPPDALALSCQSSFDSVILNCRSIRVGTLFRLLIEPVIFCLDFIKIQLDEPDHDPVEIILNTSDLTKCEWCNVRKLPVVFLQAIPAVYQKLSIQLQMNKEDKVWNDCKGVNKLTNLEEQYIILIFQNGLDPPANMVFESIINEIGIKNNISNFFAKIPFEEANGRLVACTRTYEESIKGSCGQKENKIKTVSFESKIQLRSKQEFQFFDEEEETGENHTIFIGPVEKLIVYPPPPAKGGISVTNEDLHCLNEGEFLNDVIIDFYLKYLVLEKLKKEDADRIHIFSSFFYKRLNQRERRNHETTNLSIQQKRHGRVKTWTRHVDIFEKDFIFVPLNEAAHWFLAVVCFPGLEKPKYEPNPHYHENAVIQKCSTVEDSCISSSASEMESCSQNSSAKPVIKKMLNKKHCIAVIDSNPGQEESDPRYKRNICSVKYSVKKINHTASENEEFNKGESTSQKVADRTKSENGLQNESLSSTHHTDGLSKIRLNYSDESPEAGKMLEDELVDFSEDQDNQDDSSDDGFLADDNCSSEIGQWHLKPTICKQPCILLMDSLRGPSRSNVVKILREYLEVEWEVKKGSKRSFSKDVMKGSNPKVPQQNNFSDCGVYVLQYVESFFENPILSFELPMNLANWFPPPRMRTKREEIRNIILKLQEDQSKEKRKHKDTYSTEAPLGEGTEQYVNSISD

[2] = tested on: INS1; assay: beta cell apoptosis inhibitors, cytokine rescue, dose response, luminescence, retest (AID 449756); type: functional, cell-based; conditions: Rattus norvegicus;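 note: cell death triggered by IL-1 beta plus TNF-alpha plus IFN-gamma mixture; protective hits raise ATP signal compared with cytokine alone wells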
[3] = NIH-3T3 fibroblast cytotoxicity, dose response, cytotoxicity control, cell-based, fluorescence, Alamar Blue, secondary assay (AID 2327); type: functional;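 note: NIH-3T3 mouse fibroblasts cultured with fluconazole at 8 µg/mL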
[4] = cells; type: functional, cell-based
[5] = C. albicans growth with fluconazole, confirmation, fluorescence, retest (AID 2467); type: functional, cell-based
[6] = cells; type: functional, cell-based; remark: listed apart in the source

For `CC(C)N(C(=O)Nc1ccc2nsnc2c1)C(C)C`, the IC50 [1] was 2.39 µM (active).
With `CC(C)n1cnc2c(NCc3ccccc3)cc(OCC3CCN(C)CC3)cc21` the IC50 [1] was 3.95 µM (active).
For `NS(=O)(=O)c1ccc(NC2=CC(=O)C(=O)c3ccccc32)cc1`, the IC50 [1] was 2.89 µM (active).
With `CCC(=O)NC(c1ccccc1OC)c1ccc2cccnc2c1O` (stereo not drawn) the AC50 [2] was 1.17 µM (active), the EC50 [3] was 26.6 µM (inconclusive) and the EC50 [4] was > 350 µM (not active). The EC50 [5] was 1.48 µM (active) and the EC50 [6] was 7.23 µM (active).
In the case of `O=C(N/N=C/c1ccc(O)cc1O)c1ccc(CN2C(=O)c3cccc4cccc2c34)cc1`, the AC50 [2] is reported as 0.768 µM (active), the EC50 [3] is reported as 4.96 µM (active) and the EC50 [4] is reported as > 350 µM (not active). The EC50 [5] was 0.384 µM (active) and the EC50 [6] was 31 µM (active).
